Test results taken from paper PMC7956643, “Synthesis of Novel Pyrido[1,2-c]pyrimidine Derivatives with 6-Fluoro-3-(4-piperidynyl)-1,2-benzisoxazole Moiety as Potential SSRI and 5-HT1A Receptor Ligands” (International Journal of Molecular Sciences, 2021).
“Also recorded” adds a separate entry of the source. Marks after values point to notes of the source that are not given here.

Key:
[1] = test system: CD-1 mice; assay: Forced swim test in mice; format: in vivo; conditions: administered 30 min before test
Protocol: All studies were performed according to the guidelines of the European Community Council (Directive 86/609/EEC) and were approved by the Ethical Committee of the Institute of Pharmacology (88/2016, 05/31/2016). The experiments were performed on male CD-1 mice (23–40 g). The animals were kept at room temperature (21 ± 2 °C) on a natural day-night cycle (March–October) and housed under standard laboratory conditions. They had free access to food and tap water before the experiment. Each experimental group consisted of 6–8 animals/dose. All the animals were used only once. 8-Hydroxy-2-(di-n-propylamino)tetralin hydro-bromide (8-OH-DPAT, Research Biochemical Inc.) was used as aqueous solution. Compounds 6a and 7g were suspended in a 10% aqueous solution of dimethyl sulphoxide (DMSO). Vehicle group was administered as 10% aqueous solution of dimethyl sulphoxide (DMSO). […] The obtained data were analyzed by Dunnett’s test (one drug administration) or by the Newman–Keuls test (two drugs administrations). Forced swim test: the obtained data was evaluated by one-way analysis of variance (ANOVA) followed by the Dunnett’s multiple comparisons test: p < 0.05 was considered significant.
The forced swim test (FST) was carried out according to the method of Porsolt at al.. […] After the first 2 min adaptation period, the total duration of immobility was measured during the last 4 min test. […]

[2] = target: T1, 5-HT1A receptor (Mus musculus, UniProt Q64264); assay: Body temperature in mice (induced hypothermia); format: in vivo, CD-1 mice
T1 construct: from tissue; host or cells: whole animal, male CD-1 mice
T1 sequence (Q64264 1-421): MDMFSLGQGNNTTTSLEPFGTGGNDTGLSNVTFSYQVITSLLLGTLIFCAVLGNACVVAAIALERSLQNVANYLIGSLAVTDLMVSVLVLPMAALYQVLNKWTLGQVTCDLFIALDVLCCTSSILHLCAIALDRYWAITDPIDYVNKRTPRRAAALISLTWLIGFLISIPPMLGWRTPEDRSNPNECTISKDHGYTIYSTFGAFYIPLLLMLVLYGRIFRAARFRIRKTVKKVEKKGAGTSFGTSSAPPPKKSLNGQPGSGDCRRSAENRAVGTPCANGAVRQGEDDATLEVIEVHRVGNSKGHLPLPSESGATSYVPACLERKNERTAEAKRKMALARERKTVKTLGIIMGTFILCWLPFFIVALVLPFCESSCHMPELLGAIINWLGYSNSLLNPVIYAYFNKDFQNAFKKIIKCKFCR
Protocol: (§1) The experiments were performed on male CD-1 mice (23–40 g). The animals were kept at room temperature (21 ± 2 °C) on a natural day-night cycle (March–October) and housed under standard laboratory conditions. They had free access to food and tap water before the experiment. Each experimental group consisted of 6–8 animals/dose. All the animals were used only once. 8-Hydroxy-2-(di-n-propylamino)tetralin hydro-bromide (8-OH-DPAT, Research Biochemical Inc.) was used as aqueous solution. […] Vehicle group was administered as 10% aqueous solution of dimethyl sulphoxide (DMSO). 8-OH-DPAT was injected subcutaneously (sc); 6a and 7g were given intraperitoneally (ip) in a volume of 10 mL/kg/mice. The obtained data were analyzed by Dunnett’s test (one drug administration) or by the Newman–Keuls test (two drugs administrations). Forced swim test: the obtained data was evaluated by one-way analysis of variance (ANOVA) followed by the Dunnett’s multiple comparisons test: p < 0.05 was considered significant.
(§2) The results were expressed as a change in body temperature (Δt) with respect to the basal body temperature, as measured at the beginning of the experiment.

[3] = target: T1, 5-HT1A receptor; assay: Effect of WAY-100635 on the hypothermia induced by tested compounds; format: in vivo, CD-1 mice; conditions: mice
Protocol: as §1, §2

SMILES: O=c1c(-c2ccccc2)c2ccccn2c(=O)n1CCCCN1CCC(c2noc3cc(F)ccc23)CC1 [Compound 6a, 4-Phenyl-2-{4-[4-(6-fluoro-1,2-benzoxazol-3-yl)-1-piperidyl]butyl}-pyrido[1,2-c]pyrimidine-1,3-dione]
- Effect in the forced swimming test [1]: inactivity; also recorded: ineffective
- Functional 5-HT1A receptor activity profile ([2]; concluded from induced hypothermia test in mice): presynaptic agonist of the 5-HT1A receptor; also recorded: presynaptic 5-HT1A agonistic activity
- Induction of hypothermia in mice ([2]; mice): induced hypothermia
- Δt ± SEM, body temperature ([2]; mice, 0.6 mg/kg ip, 30 min): −1.0 ± 0.2 ^b °C
- Δt ± SEM, body temperature ([2]; mice, 0.6 mg/kg ip, 60 min): −1.2 ± 0.1 ^b °C
- Δt ± SEM, body temperature ([2]; mice, 0.6 mg/kg ip, 90 min): −0.9 ± 0.1 ^a °C
- Δt ± SEM, body temperature ([2]; mice, 0.6 mg/kg ip, 120 min): −0.8 ± 0.2 ^a °C
- Δt ± SEM, body temperature ([2]; mice, 1.25 mg/kg ip, 30 min): −1.7 ± 0.3 ^b °C
- Δt ± SEM, body temperature ([2]; mice, 1.25 mg/kg ip, 60 min): −1.7 ± 0.3 ^b °C
- Δt ± SEM, body temperature ([2]; mice, 1.25 mg/kg ip, 90 min): −1.6 ± 0.2 ^b °C
- Δt ± SEM, body temperature ([2]; mice, 1.25 mg/kg ip, 120 min): −1.6 ± 0.3 ^b °C
- Δt ± SEM, body temperature ([2]; mice, 2.5 mg/kg ip, 30 min): −1.6 ± 0.2 ^b °C
- Δt ± SEM, body temperature ([2]; mice, 2.5 mg/kg ip, 60 min): −2.5 ± 0.3 ^b °C
- Δt ± SEM, body temperature ([2]; mice, 2.5 mg/kg ip, 90 min): −2.4 ± 0.3 ^b °C
- Δt ± SEM, body temperature ([2]; mice, 2.5 mg/kg ip, 120 min): −2.0 ± 0.2 ^b °C
- Δt ± SEM, body temperature ([2]; mice, 5 mg/kg ip, 30 min): −2.0 ± 0.2 ^b °C
- Δt ± SEM, body temperature ([2]; mice, 5 mg/kg ip, 60 min): −3.2 ± 0.5 ^b °C
- Δt ± SEM, body temperature ([2]; mice, 5 mg/kg ip, 90 min): −3.1 ± 0.5 ^b °C
- Δt ± SEM, body temperature ([2]; mice, 5 mg/kg ip, 120 min): −2.8 ± 0.5 ^b °C
- Δt ± SEM, body temperature ([3]; WAY-100635 0.1 mg/kg sc 15 min before compound 0.6 mg/kg, 30 min): −0.5 ± 0.2 ^b,d °C
- Δt ± SEM, body temperature ([3]; WAY-100635 0.1 mg/kg sc 15 min before compound 0.6 mg/kg, 60 min): −0.4 ± 0.2 ^a,e °C
- Hypothermia induced by compound diminished by WAY-100635 ([3]; WAY-100635 0.1 mg/kg, compound 0.6 mg/kg): 50%
- Δt ± SEM, body temperature ([3]; vehicle + compound 0.6 mg/kg, 30 min): −1.0 ± 0.2 ^c °C
- Δt ± SEM, body temperature ([3]; vehicle + compound 0.6 mg/kg, 60 min): −1.2 ± 0.1 ^c °C
